54 compounds from ChEMBL document CHEMBL1681705, “Optimisation of ITK inhibitors through successive iterative design cycles” (Bioorg Med Chem Lett, 2011) can be followed below.

The target in experiment [1] is T1, Tyrosine-protein kinase ITK/TSK (Homo sapiens, UniProt Q08881).
T1 sequence (Q08881 whole entry): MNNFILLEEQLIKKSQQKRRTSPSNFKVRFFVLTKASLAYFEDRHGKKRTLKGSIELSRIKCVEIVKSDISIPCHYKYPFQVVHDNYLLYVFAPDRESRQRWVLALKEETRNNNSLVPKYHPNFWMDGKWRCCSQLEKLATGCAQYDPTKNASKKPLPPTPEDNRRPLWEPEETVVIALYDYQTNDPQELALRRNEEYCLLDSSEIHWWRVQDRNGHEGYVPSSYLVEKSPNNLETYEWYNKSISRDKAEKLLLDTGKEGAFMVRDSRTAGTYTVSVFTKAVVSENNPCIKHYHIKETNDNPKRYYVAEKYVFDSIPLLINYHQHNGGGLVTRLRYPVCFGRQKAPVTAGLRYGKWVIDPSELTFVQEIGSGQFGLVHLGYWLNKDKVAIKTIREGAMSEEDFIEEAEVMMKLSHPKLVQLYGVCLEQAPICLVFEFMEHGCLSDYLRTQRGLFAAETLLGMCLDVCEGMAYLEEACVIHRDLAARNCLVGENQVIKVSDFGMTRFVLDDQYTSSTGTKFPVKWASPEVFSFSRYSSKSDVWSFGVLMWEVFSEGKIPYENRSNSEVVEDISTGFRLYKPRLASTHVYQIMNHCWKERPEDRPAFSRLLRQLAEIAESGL
The experiment in a line: Inhibition of recombinant GST-tagged full-length ITK expressed in baculovirus expression system after 30 mins by scintillation proximity assay.

The next experiment can be described thus: cells. To be noted: Homo sapiens, T-cell.

Description for cells: Antiinflammatory activity in human CD4+ T cell assessed as inhibition of anti-CD3/anti-CD28-induced IL-2 production treated 30 mins before anti-CD3/anti-CD28 challenge measured after 48 hrs by electro-chemiluminescence assay

With `Cc1ccc2cc(-c3n[nH]c4cc(NC(=O)C5CCCCC5)ccc34)[nH]c2c1`, the IC50 (in general, the concentration that gives 50% inhibition) in experiment [1] is greater than 50 µM.

For `c1ccc(Cc2ccc3cc(-c4n[nH]c5cccnc45)[nH]c3c2)cc1`, the concentration for half-maximal inhibition (IC50) in experiment [1] was determined as 0.21 µM.

`COc1ccc(S(=O)(=O)Nc2ccc3[nH]nc(-c4cc5ccc(C)cc5[nH]4)c3c2)cc1`: it took 0.7 µM to reach half-maximal inhibition in “cells” (IC50).

As for `Cc1ccc2cc(-c3n[nH]c4ccc(NS(=O)(=O)c5cn(C)cn5)cc34)[nH]c2c1`, the IC50 in experiment [1] stood at 0.026 µM; in the experiment “cells”, 0.4 µM.

For `Cc1ccc2cc(-c3n[nH]c4ccc(NCc5ccccc5)cc34)[nH]c2c1`, in experiment [1], the IC50 was found to be 0.53 µM.

Regarding `CCC(=O)Cc1ccc2cc(-c3n[nH]c4cccnc34)[nH]c2c1`, the IC50 worked out at 0.1 µM in experiment [1] and 1.1 µM in the experiment “cells”.

For `COCCNc1ccc2cc(-c3n[nH]c4ccccc34)[nH]c2c1`, the IC50 in experiment [1] came out at 0.26 µM; in “cells”, 1.2 µM.

In the case of `c1cnc2c(-c3cc4ccc(CC5CCCCC5)cc4[nH]3)n[nH]c2c1`, the IC50 in experiment [1] was 0.69 µM.

The compound `Cc1ccc2cc(-c3n[nH]c4ccc(NS(=O)(=O)c5cccc(F)c5)cc34)[nH]c2c1` had an IC50 in the experiment “cells” of 0.8 µM.

`c1ccc2c(-c3cc4ccc(N5CCOCC5)cc4[nH]3)n[nH]c2c1`: the IC50 in experiment [1] amounted to 0.12 µM; in “cells” it was 1.2 µM.

Consider `Cc1ccc2cc(-c3n[nH]c4cc(NC(=O)c5ccccc5)ccc34)[nH]c2c1`, for which the IC50 in experiment [1] is greater than 50 µM.

Consider `Cc1ccc2cc(-c3n[nH]c4ccc(NC5CCC5)cc34)[nH]c2c1`, for which the IC50 in experiment [1] is 0.62 µM.

`O=C(NCC1CCCCC1)c1ccc2cc(-c3n[nH]c4ccccc34)[nH]c2c1` gave an IC50 in the experiment “cells” of 9.5 µM.

`C(#Cc1ccc2cc(-c3n[nH]c4cccnc34)[nH]c2c1)CCc1cccnc1`: the IC50 in experiment [1] is 0.5 µM.

As to `Cc1ccc2cc(-c3n[nH]c4ccc(NC(=O)c5ccco5)cc34)[nH]c2c1`, the IC50 in experiment [1] was determined as 0.53 µM.

With `COCCc1ccc2cc(-c3n[nH]c4cccnc34)[nH]c2c1`, the IC50 in experiment [1] was 0.07 µM; in the experiment “cells”, 0.6 µM.

On to `CN(C)CC#Cc1ccc2cc(-c3n[nH]c4cccnc34)[nH]c2c1`, for which the IC50 in experiment [1] was 0.11 µM.

Turning to `CN(Cc1ccco1)C(=O)c1ccc2cc(-c3n[nH]c4ccccc34)[nH]c2c1`, the IC50 in experiment [1] amounted to 0.11 µM.

Regarding `CN(C)CCc1ccc2cc(-c3n[nH]c4cccnc34)[nH]c2c1`, in experiment [1], the IC50 came to 1 µM.

Consider `Cc1ccc2cc(-c3n[nH]c4ccc(NS(=O)(=O)c5ccccc5)cc34)[nH]c2c1`, for which, in the experiment “cells”, the IC50 was found to be 0.4 µM.

For the compound `Cc1ccc2cc(-c3n[nH]c4ccc(NS(=O)(=O)c5ccccc5F)cc34)[nH]c2c1`, the IC50 in the experiment “cells” was 1 µM.

For `Cc1ccc2cc(-c3n[nH]c4ccc(NC(=O)NCc5ccco5)cc34)[nH]c2c1`, the IC50 in experiment [1] was 0.31 µM.

In “cells”, `O=C(NCc1ccccc1)c1ccc2cc(-c3n[nH]c4ccccc34)[nH]c2c1` showed an IC50 of 4.1 µM.

For `Cc1ccc2cc(-c3n[nH]c4ccc(NS(=O)(=O)c5sc(C)nc5C)cc34)[nH]c2c1`, the IC50 in experiment [1] was 0.19 µM; in the experiment “cells”, 2 µM.

Take `CN(Cc1ccccc1)C(=O)c1ccc2cc(-c3n[nH]c4ccccc34)[nH]c2c1`: the IC50 amounted to 0.06 µM in experiment [1] and 9.4 µM in the experiment “cells”.

With `CC(=O)N1CCC(Nc2ccc3[nH]nc(-c4cc5ccc(C)cc5[nH]4)c3c2)CC1`, in experiment [1], the IC50 was determined as 0.37 µM.

As to `CCN(CC)C(=O)c1ccc2cc(-c3n[nH]c4ccccc34)[nH]c2c1`, the IC50 in the experiment “cells” came out at 2.1 µM.

`c1cnc2c(-c3cc4ccc(CC5CCC5)cc4[nH]3)n[nH]c2c1`: in experiment [1], the IC50 was 0.35 µM.

Take `COCCN(C)C(=O)c1ccc2cc(-c3n[nH]c4ccccc34)[nH]c2c1`: the values for the IC50 (in experiment [1]; in the experiment “cells”) were 0.07 µM and 2 µM, respectively.

`CC(=O)Nc1ccc2[nH]nc(-c3cc4ccc(C)cc4[nH]3)c2c1`: the IC50 in the experiment “cells” turned out to be 1 µM.

In the experiment “cells”, `Cc1ccc2cc(-c3n[nH]c4ccc(NC(=O)CN(C)C)cc34)[nH]c2c1` yielded an IC50 of 0.6 µM.

Take `Cc1ccc2cc(-c3n[nH]c4ccc(NS(=O)(=O)c5c(C)noc5C)cc34)[nH]c2c1`: the IC50 in experiment [1] is 0.13 µM; in the experiment “cells”, 0.5 µM.

Consider `COc1cccc(S(=O)(=O)Nc2ccc3[nH]nc(-c4cc5ccc(C)cc5[nH]4)c3c2)c1`, for which, in the experiment “cells”, the IC50 amounted to 0.9 µM.

`Cc1ccc2cc(-c3n[nH]c4ccc(NS(=O)(=O)c5ccc(F)cc5)cc34)[nH]c2c1` displayed an IC50 in “cells” of 2.9 µM.

As for `Cc1ccc2cc(-c3n[nH]c4ccc(NC(=O)C5CCOCC5)cc34)[nH]c2c1`, the IC50 in experiment [1] is 0.26 µM.

Turning to `c1ccc2c(-c3cc4ccc(NCC5CCCCC5)cc4[nH]3)n[nH]c2c1`, the midpoint of inhibition in “cells”, the IC50, lay at 3.8 µM.

In the case of `Cc1ccc2cc(-c3n[nH]c4ccc(NC(=O)NC5CCCCC5)cc34)[nH]c2c1`, the IC50 in experiment [1] was determined as 0.78 µM; in the experiment “cells”, 3.2 µM.

For `Cc1ccc2cc(-c3n[nH]c4ccc(NC5CCNCC5)cc34)[nH]c2c1`, the IC50 in the experiment “cells” came to 0.09 µM.

For `COCC#Cc1ccc2cc(-c3n[nH]c4cccnc34)[nH]c2c1`, the IC50 in experiment [1] is 0.28 µM.

In the case of `CC(C)CN(C)C(=O)c1ccc2cc(-c3n[nH]c4ccccc34)[nH]c2c1`, the IC50 in the experiment “cells” is 1.6 µM.

In the case of `Cc1ccc2cc(-c3n[nH]c4ccc(NS(C)(=O)=O)cc34)[nH]c2c1`, the values for the IC50 (in experiment [1]; in the experiment “cells”) were 0.036 µM and 0.4 µM, respectively.

Take `Cc1ccc2cc(-c3n[nH]c4ccc(NC5CCN(Cc6ccccc6)C5)cc34)[nH]c2c1` (stereo not given): the IC50 worked out at 0.03 µM in experiment [1] and 0.35 µM in the experiment “cells”.

On to `Cc1ccc2cc(-c3n[nH]c4ccc(NC(=O)Nc5ccccc5)cc34)[nH]c2c1`, for which the IC50 in experiment [1] stood at 0.73 µM.

Regarding `Cc1ccc2cc(-c3n[nH]c4ccc(NC(=O)NCc5ccccc5)cc34)[nH]c2c1`, the IC50 in experiment [1] is 0.75 µM.

For `CN(c1ccccc1)c1ccc2cc(-c3n[nH]c4ccccc34)[nH]c2c1`, in experiment [1], the IC50 was 0.31 µM.

In the case of `NC(=O)Cc1ccc2cc(-c3n[nH]c4cccnc34)[nH]c2c1`, the IC50 came out at 0.1 µM in experiment [1] and 1 µM in “cells”.

Consider `Cc1ccc2cc(-c3n[nH]c4ccc(NCC5CCCCC5)cc34)[nH]c2c1`, for which the IC50 in experiment [1] is 1.7 µM.

Take `Cn1cncc1CNC(=O)c1ccc2cc(-c3n[nH]c4ccccc34)[nH]c2c1`: the IC50 in experiment [1] came out at 0.02 µM.

Compound `Cc1ccc2cc(-c3n[nH]c4ccc(NC5CCN(C)CC5)cc34)[nH]c2c1` had an IC50 in the experiment “cells” of 0.12 µM.

Regarding `Cc1ccc2cc(-c3n[nH]c4ccc(NCC(C)C)cc34)[nH]c2c1`, the 50% inhibitory concentration (IC50) in experiment [1] was determined as 0.86 µM.

In the experiment “cells”, `COCC(=O)Nc1ccc2[nH]nc(-c3cc4ccc(OC)cc4[nH]3)c2c1` had an IC50 of 0.5 µM.

With `Cc1ccc2cc(-c3n[nH]c4ccc(NS(=O)(=O)c5c(C)nn(C)c5C)cc34)[nH]c2c1`, the IC50 is 0.085 µM in experiment [1] and 1 µM in “cells”.

With `Cc1ccc2cc(-c3n[nH]c4ccc(NC(=O)Nc5c(C)noc5C)cc34)[nH]c2c1`, the figures for the IC50 (in experiment [1]; in the experiment “cells”) were 0.072 µM and 0.3 µM, respectively.

`CCNC(=O)Nc1ccc2[nH]nc(-c3cc4ccc(C)cc4[nH]3)c2c1`: the IC50 in experiment [1] is 0.083 µM; in “cells” it was 0.6 µM.
